Laboratory results as given in patent US10106540B2, “HDAC6 inhibitors and their uses” (Universität Regensburg, priority 2014, dated 2018).

How the values were obtained:
PRXF DU-145 = test: In vitro activity against solid tumor cell lines (FACS analysis method a); type: cell-based; conditions: Homo sapiens, Prostate
Protocol: (§1) Human prostate cancer cell lines PRXF DU-145, PRXF LNCaP, PRXF PC-3M (Oncotest GmbH, Freiburg, Germany)
(§2) The assay is carried out as described in Pietschmann et al., 2012 and Brandl et al. 2012. Briefly, 10^5 cells were fixed in 1 ml 70% EtOH with 0.05% Tween-20 overnight at 4° C. The following day, cells were washed with 3 ml 38 mM sodium citrate, pH 7.4, and incubated for 20 min at 37° C. in 0.5 ml 38 mM sodium citrate, pH 7.4, supplemented with 50 μg/ml propidium iodide and 10 μg/ml RNase-A. DNA contents of the cells were measured by fluorescence-activated cell sorter (FACS). This method allows detection of the apoptotic subG1-fraction, which has a DNA content below 2n due to apoptotic cleavage of DNA. Equally, the cell cycle profile can be assessed with this method.
(§3) The novel HDAC6 inhibitors were tested in a panel of tumor cell lines for cytostatic/toxic activities (see Table 2).

PRXF LNCaP = test: as above; type: cell-based; conditions: Homo sapiens, Prostate
Protocol: as §1, §2, §3

PRXF PC-3M = test: as above; type: cell-based; conditions: Homo sapiens, Prostate
Protocol: as §1, §2, §3

BV-173 cells = test: Flow cytometric analysis of BV-173 cells, combination with imatinib; type: cell-based, human; conditions: BV-173, 1 μM MARB1 or 2 μM MARB2 combined with 0.2 or 0.5 μM imatinib, 48 h
Protocol: Flow cytometric analysis of the induction of (A) apoptotic DNA fragmentation and (B) Cell cycle analysis of BV 173 cells. The cells were kept as control cells (Ctl), treated with 1 μM or 2 μM MARB1 MARB2 and 0.2 or 0.5 μM imatinib for 48 h. The data was received by two independent experiments. The individual compounds show only slight effects in the used concentrations; whereas their combination can effectively kill leukemic cells. (C) Western blot analysis on data from the BCR-ABL, acetylated tubulin and α-sliced PARP1; the total amount of tubulin-α serves as a loading control. BV-173 cells were treated for 24 h with 1 μM, or 2 μM MARB1 or MARB2.
Human leukemia cell lines BV 173 and K562 with BCR-ABL mutation (Leibniz Institute DSMZ—German Collection of Microorganisms and Cell Cultures, DSMZ Accession Nos: ACC-20 and ACC-10).
as §2, with “This method allows detection of the apoptotic subG1-fraction, which has a DNA content below 2n due to apoptotic cleavage of DNA.” left out

HEK293T cells = test: HDAC6 overexpression model in HEK293T cells, Western blot; type: cell-based, human; conditions: 500 nM MARB1, 48 h
Protocol: However, it is mention worth that MARB1 increases the amount of acetylated tubulin in cells with HDAC6 overexpression. 400,000 cells were seeded on a 6 well plate and incubated for 24 h for adapting and the transfection was allowed for 48 h. […] HSP90 and Tubulin were used as loading control. The cells were collected on ice using Trypsin/EDTA. The overexpression was identified by using the HDAC6 antibody described in Antibodies and Plasmids. n=3 (B) The cells were transfected as described previously and collected under sterile conditions using Trypsin/EDTA. Cells were centrifuged and resuspended in new DMEM with FBS and pen/strep. The cells were splitted 1:2 and seeded per sample into two wells. After 24 h adhesion time cells were stimulated with MARB1 for 48 h. Thereafter cells were collected on ice using Trypsin/EDTA and prepared for SDS-PAGE. […] The samples were generated as described previously. HSP90 was used as loading control. n=1 […]
Western Blot analysis method b was used for the blots illustrated in FIGS. 6 to 9 and 11: Equal amounts of proteins were separated with a sodium dodecyl sulfate-polyacrylamide gel electrophoresis (SDS-PAGE) using an electrophoresis buffer by Laemmli with 1% SDS. […] Fluorescence coupled secondary antibodies (LI-COR) were used and the signal was measured on the Odyssey to detect the proteins. […]

UXF 1138 = test: In vitro activity against solid tumor cell lines (FACS analysis method a); type: cell-based; conditions: Homo sapiens, Uterus
Protocol: Human uterus cancer cell line UXF 1138 (Oncotest GmbH, Freiburg, Germany)
as §2, §3

MAXF MCF-7 = test: as above; type: cell-based; conditions: Homo sapiens, MCF7, Breast
Protocol: (§4) Human breast cancer cell lines MAXF 401 and MAXF MCF-7 (Oncotest GmbH, Freiburg, Germany)
as §2, §3

MAXF 401 = test: as above; type: cell-based; conditions: Homo sapiens, MAXF401, Breast
Protocol: as §4, §2, §3

[1] = tested on: 42 solid tumor cell lines; test: In vitro activity against solid tumor cell lines, mean of all lines; type: cell-based; conditions: average IC50 value from all 42 measurements

IC50 (PRXF DU-145): 2340 nM
IC50 (PRXF LNCaP): 1620 nM
IC50 (PRXF PC-3M): 5140 nM
IC50 (UXF 1138): 1580 nM
IC50 (MAXF MCF-7): 2330 nM
IC50 (MAXF 401): 2280 nM
IC50 [1]: 5030 nM
Compound: CN1C(=O)C2CN(Cc3c2c2ccccc2n3Cc2ccc(C(=O)NO)cc2)C1=O (stereo not drawn) [MARB1, N-Hydroxy-4-((4-methyl-3,5-dioxo-3,4,5,6-tetrahydro-2,6-methano[1,3]diazocino[5,6-b]indol-11(1H)-yl)methyl)benzamide]
apoptotic and necrotic sub-G1 populations (BV-173 cells): significantly increases
tubulin acetylation in HDAC6 flag transfected cells (HEK293T cells): high induction of tubulin acetylation
